The values below come from doi:10.1101/2025.11.05.686689v1 (biorxiv, 2025).

The target in this experiment is CAPON (NOS1AP), recombinant, C-terminal His tag (Homo sapiens, UniProt O75052). As to the kind of experiment: microscale thermophoresis. The class given is binding. In general terms: Microscale thermophoresis detects binding through changes in fluorescence in a small temperature gradient.
Sequence of CAPON (NOS1AP), recombinant, C-terminal His tag (O75052 whole entry): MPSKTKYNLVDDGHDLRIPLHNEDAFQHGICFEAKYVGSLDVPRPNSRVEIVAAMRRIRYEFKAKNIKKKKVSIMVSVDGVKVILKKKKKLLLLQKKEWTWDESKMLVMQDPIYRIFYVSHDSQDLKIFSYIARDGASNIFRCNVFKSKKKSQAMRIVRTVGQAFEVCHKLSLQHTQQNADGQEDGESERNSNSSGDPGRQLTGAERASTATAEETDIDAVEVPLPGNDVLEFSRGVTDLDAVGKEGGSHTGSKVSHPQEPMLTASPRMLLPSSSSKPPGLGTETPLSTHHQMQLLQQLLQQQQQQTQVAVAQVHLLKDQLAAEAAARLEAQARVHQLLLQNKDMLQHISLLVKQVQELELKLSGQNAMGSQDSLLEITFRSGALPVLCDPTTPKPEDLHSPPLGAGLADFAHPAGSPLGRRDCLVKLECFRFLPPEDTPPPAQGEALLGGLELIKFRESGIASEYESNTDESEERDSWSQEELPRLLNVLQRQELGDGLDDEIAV

One may read the Kd as the constant that tells how readily two partners part at equilibrium. Take `COc1ccc(NC(=O)c2ccco2)cc1NC(=O)c1cc2ccccc2cc1OC` [MA32]: the Kd was found to be 74 ± 15 µM.
